Experimental findings from BindingDB's records for doi:10.1111/cbdd.12604 (Nanjing University, 2015) are described below.

SMILES strings stand for the structures.

Usually IC50 stands for the point on the concentration scale where inhibition reaches its midpoint.

In the assay the target is 72 kDa type IV collagenase (Homo sapiens, UniProt P08253). The assay can be described thus: MMP-2 Inhibition Assay. As for the experimental part: This esterase assay used 4-nitrophenylacetate as a substrate. Initially, the rhMMP-2 was diluted to 100 µg/mL with 1 mM APMA in assay buffer. Later, the reaction was incubated at 37℃ for 1 hour. Then the rhMMP-2 was diluted to 0.2 µg/mL in assay buffer, whereas the substrate was diluted to 20 µM by assay buffer. To each well of 96-well plate, 50 µL diluted rhMMP-2 was loaded along with 100 µL diverse concentration of test compounds. The reaction was started by adding 50 μL of 20 μM substrate to each well. After progress in kinetic mode for 5 minutes, the results were read at excitation and emission wavelengths of 320 nm and 405 nm, respectively.
Sequence of 72 kDa type IV collagenase (P08253 whole entry): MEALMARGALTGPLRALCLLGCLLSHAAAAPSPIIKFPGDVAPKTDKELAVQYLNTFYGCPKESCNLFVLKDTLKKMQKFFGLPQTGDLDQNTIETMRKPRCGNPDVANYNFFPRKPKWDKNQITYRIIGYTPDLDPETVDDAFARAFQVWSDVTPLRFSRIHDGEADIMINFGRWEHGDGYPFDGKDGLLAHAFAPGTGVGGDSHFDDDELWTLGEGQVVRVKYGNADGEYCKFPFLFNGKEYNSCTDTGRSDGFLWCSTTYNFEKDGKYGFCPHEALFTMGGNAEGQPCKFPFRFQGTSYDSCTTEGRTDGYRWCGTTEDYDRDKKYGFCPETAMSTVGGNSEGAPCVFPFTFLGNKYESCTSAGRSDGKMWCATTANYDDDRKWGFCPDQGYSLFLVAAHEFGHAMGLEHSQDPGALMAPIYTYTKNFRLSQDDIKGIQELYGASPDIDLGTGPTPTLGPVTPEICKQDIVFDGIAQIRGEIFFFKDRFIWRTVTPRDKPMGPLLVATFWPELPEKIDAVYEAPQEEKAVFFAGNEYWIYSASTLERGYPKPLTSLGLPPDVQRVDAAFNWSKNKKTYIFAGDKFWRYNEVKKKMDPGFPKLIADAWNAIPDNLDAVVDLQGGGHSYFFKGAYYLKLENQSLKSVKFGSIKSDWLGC

Turning to `NS(=O)(=O)c1ccc(N2N=C(c3ccc(Cl)c(Cl)c3)CC2c2ccc(Cl)cc2O)cc1` (stereo unspecified) [4-(5-(5-Chloro-2-hydroxyphenyl)-3-(3,4-dichlorobenzenebase)-4,5-dihydropyrazole) benzene sulfonamide (4n)], the IC50 came out at 16.5 µM.

`COc1cccc(C2=NN(c3ccc(S(N)(=O)=O)cc3)C(c3cc(Cl)ccc3O)C2)c1` (stereo unspecified) [4-(5-(5-Chloro-2-hydroxyphenyl)-3-(3-oxygenmethylphenyl)-4,5-dihydropyrazole) benzene sulfonamide (4p)] yielded an IC50 of 2.13 µM.

The compound `COc1ccc(C2=NN(c3ccc(S(N)(=O)=O)cc3)C(c3ccc(Cl)cc3O)C2)cc1` (stereo unspecified) [-(5-(5-Chloro-2-hydroxyphenyl)-3-(4-methylphenyloxygen)-4,5-dihydropyrazole) benzene sulfonamide (4l)] registered an IC50 of 4.62 µM.

Compound `NS(=O)(=O)c1ccc(N2N=C(c3ccc(Cl)cc3)CC2c2cc(Cl)ccc2O)cc1` (stereo unspecified) [4-(5-(5-Chloro-2-hydroxyphenyl)-3-(4-chlorobenzene)-4,5-dihydropyrazole) benzene sulfonamide (4k)] gave an IC50 of 11.3 µM. Against the preceding compound, the IC50 is about 2.4-fold higher.

Turning to `NS(=O)(=O)c1ccc(N2N=C(c3ccccc3)CC2c2ccc(Cl)cc2O)cc1` (stereo unspecified) [4-(5-(5-Chloro-2-hydroxyphenyl)-3-phenyl)-4,5-dihydro benzene sulfonamide pyrazole) (4j)], the IC50 is 13.5 µM.

Consider `C[C@@]1(O)c2cccc(O)c2C(O)=C2C(=O)[C@]3(O)C(O)=C(C(N)=O)C(=O)C[C@@H]3C[C@@H]21` [(4aS,5aS,6S,12aR)-1,6,10,11,12a-pentahydroxy-6-methyl-3,12-dioxo-4,4a,5,5a-tetrahydrotetracene-2-carboxamide], for which the IC50 worked out at 1.13 µM.

Compound `NS(=O)(=O)c1ccc(N2N=C(c3ccccc3)CC2c2cc(Br)ccc2O)cc1` (stereo unspecified) [4-(5-(5-Bromine-2-hydroxyphenyl)-3-phenyl-4,5-dihydropyrazole) benzene sulfonamide (4q)] gave an IC50 of 12.8 µM.

`NS(=O)(=O)c1ccc(N2N=C(c3ccccc3Cl)CC2c2cc(Cl)ccc2O)cc1` (stereo unspecified) [4-(5-(5-Chloro-2-hydroxyphenyl) -3 - (2 - chlorobenzene) - 4, 5 - dihydropyrazole) benzene sulfonamide (4i)] gave an IC50 of 16.4 µM.

Compound `NS(=O)(=O)c1ccc(N2N=C(c3ccccc3Cl)CC2c2cc(Br)ccc2O)cc1` (stereo unspecified) [4-(5-(5-Bromine-2-hydroxyphenyl)-3-(2-chlorobenzene)-4,5-dihydropyrazole) benzene sulfonamide (4t)] yielded an IC50 of 15 µM.

Turning to `NS(=O)(=O)c1ccc(N2N=C(c3ccc(F)cc3)CC2c2ccccc2O)cc1` (stereo unspecified) [4-(5-(2-Hydroxyphenyl)-3-(4-fluorinatedphenyl)-4,5-dihydropyrazole) benzene sulfonamide (4x)], the IC50 was determined as 24.7 µM.

In the case of `NS(=O)(=O)c1ccc(N2N=C(c3ccc(Cl)c(Cl)c3)CC2c2ccccc2O)cc1` (stereo unspecified) [4-(3-(3,4-Dichlorobenzenebase)-5-(2-hydroxyphenyl)-4,5-dihydropyrazole) benzene sulfonamide (4g)], half-maximal inhibition (IC50) required 12.9 µM.

As for `NS(=O)(=O)c1ccc(N2N=C(c3ccc(Br)cc3)CC2c2cc(Cl)ccc2O)cc1` (stereo unspecified) [4-(3-(4-Brominephenyl)-5-(5-chloro-2-hydroxyphenyl)-4,5-dihydropyrazole) benzene sulfonamide (4m)], the IC50 was 18.9 µM.

The compound `NS(=O)(=O)c1ccc(N2N=C(c3ccccc3Cl)CC2c2ccccc2O)cc1` (stereo unspecified) [4-(3-(2-Chlorobenzene)-5-(2-hydroxyphenyl)-4,5-dihydropyrazole) benzene sulfonamide (4b)] returned an IC50 of 11.5 µM.

Take `NS(=O)(=O)c1ccc(N2N=C(c3ccc(Br)cc3)CC2c2cc(Br)ccc2O)cc1` (stereo unspecified) [4-(5-(5-Bromine-2-hydroxyphenyl)-3-(4-brominephenyl)-4,5-dihydropyrazole) benzene sulfonamide (4v)]: the IC50 is 8.73 µM. This IC50 and that of the compound before are within 1.5-fold of each other.

Turning to `NS(=O)(=O)c1ccc(N2N=C(c3ccc(Cl)cc3)CC2c2cc(Br)ccc2O)cc1` (stereo unspecified) [4-(5-(5-Bromine-2-hydroxyphenyl)-3-(4-chlorobenzene)-4,5-dihydropyrazole) benzene sulfonamide (4u)], the IC50 is 15.8 µM.

Consider `COc1cccc(C2=NN(c3ccc(S(N)(=O)=O)cc3)C(c3cc(Br)ccc3O)C2)c1` (stereo unspecified) [4-(5-(5-Bromine-2-hydroxyphenyl)-3-(3-oxygenmethylphenyl)-4,5-dihydropyrazole) benzene sulfonamide (4r)], for which the IC50 is 3.23 µM.

On to `COc1ccc(C2=NN(c3ccc(S(N)(=O)=O)cc3)C(c3ccccc3O)C2)cc1` (stereo unspecified) [4-(5-(2-Hydroxyphenyl)-3-(4-methoxyphenyl)-4,5-dihydropyrazole) benzene sulfonamide (4y)], for which it took 1.83 µM to reach half-maximal inhibition (IC50).

The compound `NS(=O)(=O)c1ccc(N2N=C(c3ccc(Cl)c(Cl)c3)CC2c2cc(Br)ccc2O)cc1` (stereo unspecified) [4-(5-(5-Bromine-2-hydroxyphenyl)-3-(3,4-dichlorobenzene)-4,5-dihydropyrazole) benzene sulfonamide (4w)] gave an IC50 of 16.2 µM. Against the preceding compound, the IC50 is about 8.9-fold higher.

Compound `COc1cccc(C2=NN(c3ccc(S(N)(=O)=O)cc3)C(c3ccccc3O)C2)c1` (stereo unspecified) [4-(5-(2-Hydroxyphenyl)-3-(3-oxygenmethylphenyl)-4,5-dihydropyrazole) benzene sulfonamide (4e)] returned an IC50 of 1.81 µM.

The compound `Cc1ccc(C2=NN(c3ccc(S(N)(=O)=O)cc3)C(c3ccccc3O)C2)cc1C` (stereo unspecified) [4-(3-(3,4-Dimethylphenyl)-5-(2-hydroxyphenyl)-4,5-dihydropyrazole) benzene sulfonamide (4f)] registered an IC50 of 4.65 µM. This IC50 lies about 2.6-fold higher than the previous one.

`CCOc1ccc(C2=NN(c3ccc(S(N)(=O)=O)cc3)C(c3ccc(Cl)cc3O)C2)cc1` (stereo unspecified) [4-(5-(5-Chloro-2-hydroxyphenyl)-3-(4-phenylethyloxygen)-4,5-dihydropyrazole) benzene sulfonamide (4o)] yielded an IC50 of 3.84 µM.
